Measured values as given in patent publication US12364689B2, “Dosage regimen for the treatment of cancer” (AstraZeneca AB, priority 2020, dated 2025).
“Also recorded” adds a separate entry of the source.

Assays:
[1] = test system: women with ER+ HER2- advanced breast cancer; assay: Phase 1 clinical trial: safety and tolerability (AEs, DLTs); type: in vivo
Procedure: “Grade 4 or 5 adverse events” can be classified according to the common terminology criteria for adverse events (CTCAE).
Dose Limiting Toxicity (DLT): a DLT is defined as an AE or abnormal laboratory value that occurs from the first dose of AZD9833 up to and including Day 28, Cycle 1 (the DLT period) that is assessed as unrelated to disease progression, intercurrent illness, or concomitant medications and that, despite optimal therapeutic intervention, meets any of the following criteria: • (a) Any death not clearly due to the underlying disease or extraneous causes • (b) Haematological toxicities as follows (CTCAE): • (i) Any >Grade 4 haematological toxicity present for more than 4 consecutive days, or requiring blood transfusions, G-CSF, or erythropoietins. • (ii)>Grade 3 neutropenia of any duration accompanied with fever ≥38.5° C. and/or systemic infection. • (iii)>Grade 3 thrombocytopenia of any duration with bleeding. • (iv) Grade 4 thrombocytopenia (regardless of duration or bleeding) • (c) Any non-haematological toxicity CTCAE >Grade 3 but with the following conditional stipulations: • (i) Nausea >CTCAE Grade 3 for more than 3 consecutive days despite administration of maximal anti-emetic therapy. • (ii) Vomiting >CTCAE Grade 3 for more than 3 consecutive days despite administration of maximal anti-emetic therapy. • (iii) Vomiting >CTCAE Grade 4 (regardless of duration) • (iv) Diarrhoea >CTCAE Grade 3 for more than 3 consecutive days despite administration of maximal anti-diarrheal therapy. • (v) Diarrhoea ≥ CTCAE Grade 4 (regardless of duration) • (vi) CTCAE Grade ≥3 fatigue that persists for more than 4 days. • (vii) CTCAE Grade ≥3 increase in creatinine. • (d) Other toxicity: • (i) QTcF value >500 ms or QTcF prolongation from baseline by 60 ms and >480 ms confirmed on at least 2 separate ECGs. • (ii)>CTCAE Grade 4 electrocardiogram QT corrected interval prolongation. • (iii) An increase in serum/plasma AST or ALT ≥3×ULN and concurrent TBL ≥2 ULN. • (e) Any other toxicity that: • (i) Is greater than at baseline and is clinically significant and/or unacceptable despite optimal therapeutic intervention, and is judged to be a DLT by the SRC, or • (ii) Results in a disruption of the dosing schedule of more than 14 days despite optimal therapeutic intervention.
Safety and Clinical Assessments: The safety and tolerability of AZD9833 is the primary objective of this study. Related outcome measures are DLTs, AEs/SAEs, vital signs, clinical chemistry/haematology, and ECGs.
Clinical Safety Laboratory Assessments: Clinical chemistry, haematology, and urinalysis and coagulation will be performed at a local laboratory at or near to the investigator study site. Sample tubes and sample sizes may vary depending on laboratory method used and routine practice at the study site.
A clinical trial according to the above protocol was carried out using 60 patients.

[2] = Phase 1 clinical trial: pharmacokinetics of AZD9833 in plasma; type: in vivo, human
Description: The “median terminal half-life” is the median time for a patient's drug blood plasma concentration to halve after reaching pseudo-equilibrium.
Pharmacokinetics: The characterisation of the pharmacokinetics of single and multiple doses of AZD9833 is a secondary objective of this study. Any residual sample remaining after PK analysis has been performed may be used to identify, characterise, and establish the concentration of AZD9833 metabolites and drug-related products in plasma, and/or to conduct exploratory biomarker research. Analysis of AZD9833 in plasma and urine will be performed using appropriate bioanalytical methods. Full details of the analytical methods used will be described in separate bioanalytical reports.
All samples within the known stability of the analytes of interest at the time of receipt by the bioanalytical laboratory will be analysed. In addition, the PK samples may be subjected to further analyses to identify, characterise, and establish the concentration of metabolites in plasma. Any results from such analyses will be reported separately from the clinical study report. Incurred sample reproducibility analysis, if any, will be performed with the bioanalysis of the test samples. The results from the evaluation will not be reported in the clinical study report but, separately, in a bioanalytical report. […]

**Q.** For `C[C@@H]1Cc2c(ccc3[nH]ncc23)[C@@H](c2ccc(NC3CN(CCCF)C3)cn2)N1CC(F)(F)F` [AZD9833, N-(1-(3-fluoropropyl)azetidin-3-yl)-6-((6S,8R)-8-methyl-7-(2,2,2-trifluoroethyl)-6,7,8,9-tetrahydro-3H-pyrazolo[4,3-f]isoquinolin-6-yl) pyridin-3-amine], which DLT observed ([1]; 300 mg) is on record?
**A.** G3 QTcF prolongation

**Q.** And the DLT observed ([1]; 450 mg)?
**A.** G3 vomiting; also recorded: a combination of G2 visual disturbance, G2 headache and G2 gait disturbance

**Q.** What about the “G4 or 5 AEs” value ([1]; 60 patients, all doses) of the same molecule?
**A.** No G4 or 5 AEs were reported

**Q.** And the “Treatment-related AE: asthenia, patients affected” value ([1]; 60 patients, all doses)?
**A.** 10%

**Q.** And the “Treatment-related AE: bradycardia/sinus bradycardia, patients affected” value ([1]; 60 patients, all doses)?
**A.** 45%

**Q.** What about the “Treatment-related AE: dizziness, patients affected” value ([1]; 60 patients, all doses) of the same molecule?
**A.** 10%

**Q.** And the “Treatment-related AE: fatigue, patients affected” value ([1]; 60 patients, all doses)?
**A.** 13%

**Q.** What about the “Treatment-related AE: nausea, patients affected” value ([1]; 60 patients, all doses) of the same molecule?
**A.** 18%

**Q.** And the “Treatment-related AE: visual disturbances, patients affected” value ([1]; 60 patients, all doses)?
**A.** 53%

**Q.** What about the “Treatment-related AE: vomiting, patients affected” value ([1]; 60 patients, all doses) of the same molecule?
**A.** 10%

**Q.** And the “clinical relevance of observed AEs” value ([1]; 60 patients, all doses)?
**A.** None of the observed AEs were deemed to be clinically relevant

**Q.** What about the “patients who experienced DLTs” value ([1]; of 60 patients, all doses) of the same molecule?
**A.** Three

**Q.** And the “asthenia, share G1” value ([1]; of affected patients, grade 1)?
**A.** 67%

**Q.** What about the “bradycardia/sinus bradycardia, share G1” value ([1]; of affected patients, grade 1) of the same molecule?
**A.** 93%

**Q.** What about the “dizziness, share G1” value ([1]; of affected patients, grade 1) of the same molecule?
**A.** 83%

**Q.** What about the “fatigue, share G1” value ([1]; of affected patients, grade 1) of the same molecule?
**A.** 38%

**Q.** What about the “nausea, share G1” value ([1]; of affected patients, grade 1) of the same molecule?
**A.** 46%

**Q.** What about the “visual disturbances, share G1” value ([1]; of affected patients, grade 1) of the same molecule?
**A.** 91%

**Q.** And the “vomiting, share G1” value ([1]; of affected patients, grade 1)?
**A.** 50%

**Q.** And the “asthenia, share G2” value ([1]; of affected patients, grade 2)?
**A.** 33%

**Q.** What about the “bradycardia/sinus bradycardia, share G2” value ([1]; of affected patients, grade 2) of the same molecule?
**A.** 7%

**Q.** And the “fatigue, share G2” value ([1]; of affected patients, grade 2)?
**A.** 63%

**Q.** And the “nausea, share G2” value ([1]; of affected patients, grade 2)?
**A.** 55%

**Q.** What about the “visual disturbances, share G2” value ([1]; of affected patients, grade 2) of the same molecule?
**A.** 6%

**Q.** What about the “vomiting, share G2” value ([1]; of affected patients, grade 2) of the same molecule?
**A.** 33%

**Q.** And the “dizziness, share G3” value ([1]; of affected patients, grade 3)?
**A.** 17%

**Q.** What about the “visual disturbances, share G3” value ([1]; of affected patients, grade 3) of the same molecule?
**A.** 3%

**Q.** What about the “vomiting, share G3” value ([1]; of affected patients, grade 3) of the same molecule?
**A.** 17%

**Q.** And the “AZD9833 exposure versus dose” value ([2]; after multiple doses)?
**A.** dose proportional

**Q.** And the half-life ([2]; human, plasma, patients, oral QD dosing, across five doses, read-out: median terminal t1/2 (converted))?
**A.** 12 h
